Data set [1] deals with T1, BmrA (Bacillus subtilis, UniProt O06967, E504A).
T1 sequence (O06967 1-589 E504A): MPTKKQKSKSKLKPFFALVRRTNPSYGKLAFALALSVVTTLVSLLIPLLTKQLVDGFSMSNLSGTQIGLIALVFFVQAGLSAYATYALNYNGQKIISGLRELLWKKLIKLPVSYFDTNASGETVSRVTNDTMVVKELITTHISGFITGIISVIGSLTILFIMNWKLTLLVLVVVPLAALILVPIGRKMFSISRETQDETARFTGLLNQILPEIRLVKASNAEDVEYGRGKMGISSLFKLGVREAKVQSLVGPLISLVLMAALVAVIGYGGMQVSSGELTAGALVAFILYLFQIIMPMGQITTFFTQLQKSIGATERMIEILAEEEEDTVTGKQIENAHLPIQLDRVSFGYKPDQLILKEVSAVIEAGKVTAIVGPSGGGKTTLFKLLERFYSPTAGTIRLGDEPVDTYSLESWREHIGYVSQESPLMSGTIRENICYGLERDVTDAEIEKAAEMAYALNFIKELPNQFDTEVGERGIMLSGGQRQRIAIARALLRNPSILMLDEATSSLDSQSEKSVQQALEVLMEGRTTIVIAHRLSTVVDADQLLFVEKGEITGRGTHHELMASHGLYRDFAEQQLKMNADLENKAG
As to the kind of experiment: cryo-EM structure. It is filed as binding.

The target in data set [2] is T2, BmrA (Bacillus subtilis, UniProt O06967).
T2 sequence (O06967 1-589): T1 sequence (O06967 1-589 E504A)
As to the kind of experiment: intrinsic fluorescence binding, purified WT BmrA in DDM.

Data set [3] concerns the molecule itself. As to the kind of experiment: crystal structure.

Substitutions are numbered along the chain they refer to. Numbers in names are those of the source.

Here are results for 2 molecules from article PMC8791611 (Science Advances, 2022).

With `CC/N=c1\cc2oc3cc(NCC)c(C)cc3c(-c3ccccc3C(=O)OCC)c-2cc1C` [R6G], the figures for the dissociation constant (Kd) in data set [1] and in data set [2] were 3.3 ± 0.7 µM and 4.8 ± 0.9 µM, respectively.

B1: BmrA E504A mutant (Bacillus subtilis multidrug ABC exporter, homodimeric) (natural protein)
chain: T1 sequence (O06967 1-589 E504A) with E504A
As for B1, the binding result in data set [3] was “binds”.
